{
  "source": "paper PMC11754895",
  "about": "(Nature Communications, 2025)",
  "biological_target": "T1, OleTKM (Kocuria marina, UniProt A0A0B0D9P4)",
  "T1 sequence (A0A0B0D9P4 1-428)": "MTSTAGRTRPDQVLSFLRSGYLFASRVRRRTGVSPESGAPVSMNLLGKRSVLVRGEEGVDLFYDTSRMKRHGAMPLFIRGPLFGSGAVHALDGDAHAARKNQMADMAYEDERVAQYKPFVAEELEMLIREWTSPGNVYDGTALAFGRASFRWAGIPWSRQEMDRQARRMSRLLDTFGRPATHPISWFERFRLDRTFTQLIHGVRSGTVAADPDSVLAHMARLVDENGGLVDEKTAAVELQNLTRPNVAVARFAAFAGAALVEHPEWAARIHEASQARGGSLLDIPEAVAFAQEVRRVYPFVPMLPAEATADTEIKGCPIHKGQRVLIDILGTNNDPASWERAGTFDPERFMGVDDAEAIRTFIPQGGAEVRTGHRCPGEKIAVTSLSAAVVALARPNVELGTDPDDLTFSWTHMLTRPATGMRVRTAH",
  "test": "inhibition of myristic acid turnover",
  "format": "biochemical",
  "settings": "even mixture of C14:0 and C18:1; competitive",
  "data": [
    {"smiles": "CCCCCCCC/C=C\\CCCCCCCC(=O)O", "note": "[oleic acid]", "values": [
      {"measurement": "inhibition of myristic acid turnover", "value": "presence of oleic acid impaired the activity of OleTKM against myristic acid (Fig. 1d)"}
    ]}
  ]
}
